Experimental data: ChEMBL document CHEMBL1141593, “Acylpyrogallols as inhibitors of antiapoptotic Bcl-2 proteins” (J Med Chem, 2008)

How the values were obtained:
[1] = system: MDA-MB-231; assay: Induction of apoptosis in human MDA-MB-231 2LMP cells assessed as cell death at 3 uM after 4 days by trypan blue exclusion assay; conditions: MDA-MB-231, 96 h
[2] = system: MDA-MB-231; assay: Induction of apoptosis in human MDA-MB-231 2LMP cells assessed as cell death at 0.3 uM after 4 days by trypan blue exclusion assay; conditions: MDA-MB-231, 96 h

## O=C(c1ccc(Oc2ccccc2)cc1)c1cc(C(=O)c2nc3ccccc3s2)c(O)c(O)c1O
[1]
  cell death at 3 µM: 86%
[2]
  cell death at 0.3 µM: 31%
